We go through 2 substances from EP0583821A1, “Atriopeptins, guanylate cyclase activators, and phosphodiesterase inhibitors as treatment for glaucoma, hydrocephalus and cerebral edema (cranial fluid volume dysfunction)” (THE GENERAL HOSPITAL CORPORATION, priority 1987, dated 1988).

Test [1] deals with T1, guanylate cyclase (Oryctolagus cuniculus, UniProt G1TXB5).
T1 sequence (G1TXB5 28-1056): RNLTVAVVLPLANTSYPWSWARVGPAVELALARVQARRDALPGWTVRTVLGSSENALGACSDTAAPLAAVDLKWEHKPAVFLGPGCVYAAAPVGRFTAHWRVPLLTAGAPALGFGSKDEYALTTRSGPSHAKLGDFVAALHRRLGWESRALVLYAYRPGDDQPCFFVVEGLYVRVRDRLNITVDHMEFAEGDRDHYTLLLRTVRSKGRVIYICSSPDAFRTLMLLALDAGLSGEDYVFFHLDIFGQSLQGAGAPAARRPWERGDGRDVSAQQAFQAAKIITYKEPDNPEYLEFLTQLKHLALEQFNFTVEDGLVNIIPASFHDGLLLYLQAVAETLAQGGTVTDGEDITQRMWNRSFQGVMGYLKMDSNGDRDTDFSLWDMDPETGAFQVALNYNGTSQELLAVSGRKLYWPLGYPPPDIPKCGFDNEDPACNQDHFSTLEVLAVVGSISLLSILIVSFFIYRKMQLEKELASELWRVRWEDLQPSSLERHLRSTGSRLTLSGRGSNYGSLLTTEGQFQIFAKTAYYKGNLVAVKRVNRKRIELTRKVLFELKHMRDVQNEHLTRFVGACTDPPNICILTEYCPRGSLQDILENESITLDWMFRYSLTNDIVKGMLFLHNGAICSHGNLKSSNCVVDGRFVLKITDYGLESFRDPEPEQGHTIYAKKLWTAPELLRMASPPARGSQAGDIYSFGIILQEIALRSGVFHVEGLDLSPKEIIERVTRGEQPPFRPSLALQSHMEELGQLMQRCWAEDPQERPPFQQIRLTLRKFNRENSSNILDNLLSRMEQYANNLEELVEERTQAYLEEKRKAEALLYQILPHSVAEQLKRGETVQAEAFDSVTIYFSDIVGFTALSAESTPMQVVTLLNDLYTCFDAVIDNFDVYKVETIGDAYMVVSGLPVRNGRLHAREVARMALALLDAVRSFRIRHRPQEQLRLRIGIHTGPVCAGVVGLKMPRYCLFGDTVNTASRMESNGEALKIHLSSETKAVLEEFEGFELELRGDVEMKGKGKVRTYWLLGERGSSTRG
Nature of the test: Atriopeptin-activated guanylate cyclase in kidney membrane (P1) fractions. The format is biochemical, rabbit. Details: tissues were homogenized (10 mg wet weight per milliliter); from tissue; host or cells: rabbit cerebral microvessels, choroid plexus, kidney, ciliary process, pia-arachnoid, cerebellum; 100,000 g P1 pellet. The note with it: mean ± range of duplicate determinations. On the procedure:
(§1) The effect of rANP on membrane-bound guanylate cyclase and adenylate cyclase activity in various brain-barrier tissues and tissue fractions from rabbit was compared with its activity in cerebrum and cerebellum. Guanylate cyclase was measured as the rate of cyclic GMP formation by modifications of the technique of Waldman et al., supra, incorporated herein by reference. Briefly, tissues were homogenized (10 mg wet weight per milliliter) in 50 mM tris-HCl, pH 8.0, 1 mM EDTA, 1 mM dithiothreitol, and 250 mM sucrose and centrifuged at 100,000g to obtain a P1 pellet. Reaction tubes contained (in 0.3 ml), 50 mM tris, pH 7.6, 6 mM MnCl₂, 0.5 mM 3-isobutyl, 1-methylxanthine (IBMX), 10 mM theophylline, 3 mM GTP, hormone (in 0.03 ml containing 2.5 mM ascorbic acid and 0.1% bovine serum albumin), and 0.06 ml of P1 fraction (40 to 60 ug of protein). The reaction (4 minutes at 30°C) was started by addition of GTP and terminated by addition of 0.3 ml of 150 mM sodium acetate (pH 4.0) and boiling for 3 minutes. Cyclic GMP formed was subsequently measured by radioimmunoassay as described in example 6, infra. Under these conditions, guanylate cyclase activity was linear with time and tissue concentration. Adenylate cyclase activity in P1 fractions was measured according to the method described by Nathanson, et al., Science; 204:843 (1979); Mol. Pharmacol. 18:199 (1980), see Figure 1C . […] Neurosci. Abstr., 10, 899 (1984); Nathanson, et al., Soc. Neurosci. Abstr., 12, 1257 (1986), incorporated herein by reference, but with a lower concentration (0.025%) of trypsin and a rotating tissue tumbler which allowed cleaner fractionation of epithelial cells from erythrocytes and vascular components.
Ciliary process tips were obtained from male, 3-4 kg, New Zealand white rabbits, immediately following sacrifice with an overdose of ether, as described in Nathanson, Invest. Ophthal. Vis. Sci., 21:7981 (1982). […]
Atriopeptin-activated guanylate cyclase activity was measured as the rate of conversion of GTP to cyclic GMP. […]

The target in test [2] is T1, guanylate cyclase. The test can be described thus: Guanylate cyclase in membrane fractions of cerebellum. Details: tissues were homogenized (10 mg wet weight per milliliter); from tissue; host or cells: rabbit cerebral microvessels, choroid plexus, kidney, ciliary process, pia-arachnoid, cerebellum; 100,000 g P1 pellet. The format is biochemical, rabbit. On the procedure: as §1, with “Abstr., 10, 899 (1984); Nathanson, et al., Soc. Neurosci. Abstr., 12, 1257 (1986), incorporated herein by reference, but with a lower concentration (0.025%) of trypsin and a rotating tissue tumbler which allowed cleaner fractionation of epithelial cells from erythrocytes and vascular components.” left out

With “Ser-Leu-Arg-Arg-atriopeptin III (APIII) [rANP 1-28]”, the “Vmax Stimulation (%) of Guanylate Cyclase Kidney” value on guanylate cyclase [1] is on record as 129 ± 25%. The “stimulation of guanylate cyclase” value at guanylate cyclase [2] is “moderate amount of stimulation”. In the case of “rANP 13-28 (DRIGAQSGLGCNSFRY; Atrial natriuretic peptide; UniProt P01161 135-150, looked up, fragment)”, the “Vmax Stimulation (%) of Guanylate Cyclase Kidney” value with guanylate cyclase [1] stood at 54 ± 4%.
